Assay results taken from patent US8048862B2, “Macrocyclic inhibitors of hepatitis C virus replication” (priority 2008, dated 2011).
Where two headings read alike, the source gives them in different places.

Columns and labels:
NS3/NS4 complexes = NS3/NS4 complexes (Hepatitis C virus genotype 1a, UniProt P27958); assay: NS3/NS4 inhibition activity (IC50); format: biochemical
From the text: NS3-NS4 inhibition activity can be determined using known assay methods. For example, NS3/NS4 complexes may be formed and inhibitory concentrations of test compounds determined as described in U.S. Patent Application Publication Number 2007/0054842 paragraph numbers 1497-1509, which is incorporated herein by reference in its entirety. Similarly, hepatitis C replicon EC50 may be determined using known assay methods such as described in U.S. Patent Application Publication Number 2007/0054842 paragraph numbers 1510-1515. Assays may be conducted at ambient temperature (23° C.) in assay buffer containing 50 mM Tris-HCl, pH 7.5, 15% glycerol, 0.6 mM Lauryldimethylamine Oxide (LDAO), 25 μM NS4A peptide, and 10 mM Dithiothreitol (DTT).

hepatitis C replicon = hepatitis C replicon EC50; format: cell-based; conditions: Hepatitis C virus, hepatitis C replicon, read-out: EC50
From the text: NS3-NS4 inhibition activity can be determined using known assay methods.

Chain of NS3/NS4 complexes (P27958 1027-1657): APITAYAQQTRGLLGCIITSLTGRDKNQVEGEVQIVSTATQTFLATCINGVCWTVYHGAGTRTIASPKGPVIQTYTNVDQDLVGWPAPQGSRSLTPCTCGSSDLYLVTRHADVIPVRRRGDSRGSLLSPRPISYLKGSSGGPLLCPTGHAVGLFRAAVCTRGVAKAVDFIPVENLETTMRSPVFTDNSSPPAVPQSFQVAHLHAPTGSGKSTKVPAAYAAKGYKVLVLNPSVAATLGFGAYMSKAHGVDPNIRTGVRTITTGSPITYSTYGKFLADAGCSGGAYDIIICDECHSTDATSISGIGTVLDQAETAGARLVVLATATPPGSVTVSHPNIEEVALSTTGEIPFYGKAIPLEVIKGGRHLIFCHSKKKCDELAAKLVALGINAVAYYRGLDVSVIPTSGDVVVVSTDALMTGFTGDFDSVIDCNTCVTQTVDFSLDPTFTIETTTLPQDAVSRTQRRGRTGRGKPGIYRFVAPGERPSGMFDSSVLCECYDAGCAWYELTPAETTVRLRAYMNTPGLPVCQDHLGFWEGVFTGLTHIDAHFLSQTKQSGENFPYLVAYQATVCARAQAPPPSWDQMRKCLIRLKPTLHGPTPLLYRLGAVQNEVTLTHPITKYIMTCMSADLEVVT
Chain of NS3/NS4 complexes (P27958 1658-1711): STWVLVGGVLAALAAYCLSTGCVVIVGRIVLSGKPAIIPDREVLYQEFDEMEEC

SMILES	IC50 (NS3/NS4 complexes; Table 2, read-out: IC50) [nM]	EC50 (hepatitis C replicon; Table 2) [nM]	IC50 (NS3/NS4 complexes; Table 3, read-out: IC50) [nM]	EC50 (hepatitis C replicon; Table 3) [nM]	IC50 (NS3/NS4 complexes; IC50, Table 3) [nM]
CC1(S(=O)(=O)NC(=O)[C@@]23C[C@H]2/C=C\CCCCC[C@H](Nc2ccc(C(F)(F)F)cc2)C(=O)N2C[C@H](Oc4nc5ccccc5s4)C[C@H]2C(=O)N3)CC1 [Compound 330]	< 10	75 to 500			
CC(C)(C)OC(=O)N[C@H]1CCCCC/C=C\[C@@H]2C[C@@]2(C(=O)NS(=O)(=O)C2CC2)NC(=O)[C@@H]2C[C@@H](Oc3nc4ccc(Br)cc4s3)CN2C1=O [Compound 1012]			< 10	< 10	
Cc1cccc2nc(O[C@@H]3C[C@H]4C(=O)N[C@]5(C(=O)NS(=O)(=O)C6CC6)C[C@H]5/C=C\CCCCC[C@H](NC(=O)OC(C)(C)C)C(=O)N4C3)sc12 [Compound 1040]			< 10	< 10	
COc1ccc2c(O[C@@H]3C[C@H]4C(=O)N[C@]5(C(=O)NS(=O)(=O)C6CC6)C[C@H]5/C=C\CCCCC[C@H](Nc5ccc(F)cc5)C(=O)N4C3)cc(-c3nc(C(C)C)cs3)nc2c1C [Compound 409]	< 10	< 10			
O=C1N[C@]2(C(=O)O)C[C@H]2/C=C\CCCCC[C@H](Nc2cccc(C(F)(F)F)c2)C(=O)N2C[C@H](Oc3nc4ccccc4s3)C[C@@H]12 [Compound 110]	10 to 75	> 500			
CC(C)(C)Cn1c(O[C@@H]2C[C@H]3C(=O)N[C@]4(C(=O)NS(=O)(=O)C5(C)CC5)C[C@H]4/C=C\CCCCC[C@H](Nc4cc(F)cc(C(F)(F)F)c4)C(=O)N3C2)nc2ccccc21 [Compound 401]	< 10	75 to 500			
CC(C)(C)OC(=O)N[C@H]1CCCCC/C=C\[C@@H]2C[C@@]2(C(=O)NS(=O)(=O)C2CC2)NC(=O)[C@@H]2C[C@@H](Oc3nc4ccccc4n3Cc3ccccc3)CN2C1=O [Compound 1051]			< 10	10 to 100	
CC1(S(=O)(=O)NC(=O)[C@@]23C[C@H]2/C=C\CCCCC[C@H](Nc2cc(F)cc(C(F)(F)F)c2)C(=O)N2C[C@H](Oc4nc5ccccc5o4)C[C@H]2C(=O)N3)CC1 [Compound 353]	< 10	75 to 500			
COc1ccc2c(O[C@@H]3C[C@H]4C(=O)N[C@]5(C(=O)NS(=O)(=O)C6CC6)C[C@H]5/C=C\CCCCC[C@H](Nc5cccc(F)c5)C(=O)N4C3)cc(-c3nc(C(C)C)cs3)nc2c1C [Compound 411]	< 10	< 10			
CC1(S(=O)(=O)NC(=O)[C@@]23C[C@H]2/C=C\CCCCC[C@H](Nc2cc(F)cc(F)c2)C(=O)N2C[C@H](Oc4nc5ccccc5s4)C[C@H]2C(=O)N3)CC1 [Compound 328]	< 10	10 to 75			
COc1ccc2c(O[C@@H]3C[C@H]4C(=O)N[C@]5(C(=O)NS(=O)(=O)C6CC6)C[C@H]5/C=C\CCCCC[C@H](Nc5ccc(F)c(C(F)(F)F)c5)C(=O)N4C3)cc(-c3ccccc3)nc2c1 [Compound 356]	< 10	< 10			
COc1ccc2c(O[C@@H]3C[C@H]4C(=O)N[C@]5(C(=O)NS(=O)(=O)C6(C)CC6)C[C@H]5/C=C\CCCCC[C@H](Nc5cccc(NS(C)(=O)=O)c5)C(=O)N4C3)cc(-c3nc(C(C)C)cs3)nc2c1C [Compound 484]		10 to 75			
COc1ccc2c(O[C@@H]3C[C@H]4C(=O)N[C@]5(C(=O)NS(=O)(=O)C6(C)CC6)C[C@H]5/C=C\CCCCC[C@H](Nc5cccc(NC(C)=O)c5)C(=O)N4C3)cc(-c3nc(C(C)C)cs3)nc2c1C [Compound 475]	< 10	< 10			
CO[C@@H]1C[C@H]2C(=O)N[C@]3(C(=O)NCCC(=O)NCc4ccccc4)C[C@H]3/C=C\CCCCC[C@H](NC(=O)OC(C)(C)C)C(=O)N2C1 [Compound 1062]			> 100	> 100	
COc1ccc2c(O[C@@H]3C[C@H]4C(=O)N[C@]5(C(=O)NS(=O)(=O)C6CC6)C[C@H]5/C=C\CCCCC[C@H](Nc5ccc(C(F)(F)F)cc5)C(=O)N4C3)cc(-c3nc(C(C)C)cs3)nc2c1C [Compound 446]	< 10	< 10			
CC(C)n1c(O[C@@H]2C[C@H]3C(=O)N[C@]4(C(=O)NS(=O)(=O)C5(C)CC5)C[C@H]4/C=C\CCCCC[C@H](NC(=O)OC(C)(C)C)C(=O)N3C2)nc2ccccc21 [Compound 1077]			< 10	< 10	
O=C1N[C@]2(C(=O)NS(=O)(=O)C3CC3)C[C@H]2/C=C\CCCCC[C@H](Nc2cc(F)cc(C(F)(F)F)c2)C(=O)N2C[C@H](OC(=O)N3Cc4cccc(F)c4C3)C[C@@H]12 [Compound 1128]			< 10	< 10	
CC(C)n1c(O[C@@H]2C[C@H]3C(=O)N[C@]4(C(=O)NS(=O)(=O)N(C)C)C[C@H]4/C=C\CCCCC[C@H](NC(=O)OC(C)(C)C)C(=O)N3C2)nc2c(F)cccc21 [Compound 1135]			< 10	< 10	
CC1(S(=O)(=O)NC(=O)[C@@]23C[C@H]2/C=C\CCCCC[C@H](Nc2cc(F)cc(C(F)(F)F)c2)C(=O)N2C[C@H](Oc4nc5ccccc5s4)C[C@H]2C(=O)N3)CC1 [Compound 345]	< 10	10 to 75			

SMILES	IC50 (NS3/NS4 complexes; Table 2, read-out: IC50) [nM]	EC50 (hepatitis C replicon; Table 2) [nM]	IC50 (NS3/NS4 complexes; Table 3, read-out: IC50) [nM]	EC50 (hepatitis C replicon; Table 3) [nM]	IC50 (NS3/NS4 complexes; IC50, Table 3) [nM]
Cc1ccc2oc(O[C@@H]3C[C@H]4C(=O)N[C@]5(C(=O)NS(=O)(=O)C6CC6)C[C@H]5/C=C\CCCCC[C@H](NC(=O)OC(C)(C)C)C(=O)N4C3)nc2c1 [Compound 1030]			< 10	10 to 100	
COc1ccc2c(O[C@@H]3C[C@H]4C(=O)N[C@]5(C(=O)NS(=O)(=O)C6(C)CC6)C[C@H]5/C=C\CCCCC[C@H](Nc5cc(F)cc(C(F)(F)F)c5)C(=O)N4C3)cc(-c3ccccc3)nc2c1 [Compound 355]	< 10	< 10			
CC1(S(=O)(=O)NC(=O)[C@@]23C[C@H]2/C=C\CCCCC[C@H](Nc2cc(Cl)cc(Cl)c2)C(=O)N2C[C@H](Oc4nc5ccccc5s4)C[C@H]2C(=O)N3)CC1 [Compound 340]	< 10	10 to 75			
CC(C)n1c(O[C@@H]2C[C@H]3C(=O)N[C@]4(C(=O)NS(=O)(=O)C5(C)CC5)C[C@H]4/C=C\CCCCC[C@H](Nc4ccccc4)C(=O)N3C2)nc2cc(F)ccc21 [Compound 468]	< 10	< 10			
CC(C)n1c(O[C@@H]2C[C@H]3C(=O)N[C@]4(C(=O)NS(=O)(=O)C5(C)CC5)C[C@H]4/C=C\CCCCC[C@H](Nc4ccccc4)C(=O)N3C2)nc2ccc(F)cc21 [Compound 461]	< 10	10 to 75			
CC1(S(=O)(=O)NC(=O)[C@@]23C[C@H]2/C=C\CCCCC[C@H](Nc2cccc(NS(C)(=O)=O)c2)C(=O)N2C[C@H](OC(=O)N4Cc5cccc(F)c5C4)C[C@H]2C(=O)N3)CC1 [Compound 1122]			< 10	10 to 100	
O=C1N[C@]2(C(=O)NS(=O)(=O)C3CC3)C[C@H]2/C=C\CCCCC[C@H](Nc2ccccc2)C(=O)N2C[C@H](Oc3nc4ccccc4s3)C[C@@H]12 [Compound 157]	< 10	10 to 75			
COc1ccc2oc(O[C@@H]3C[C@H]4C(=O)N[C@]5(C(=O)NS(=O)(=O)C6CC6)C[C@H]5/C=C\CCCCC[C@H](NC(=O)OC(C)(C)C)C(=O)N4C3)nc2c1 [Compound 1035]			< 10	> 100	
CC1(S(=O)(=O)NC(=O)[C@@]23C[C@H]2/C=C\CCCCC[C@H](Nc2ccc(C(F)(F)F)c(F)c2)C(=O)N2C[C@H](OC(=O)N4Cc5cccc(F)c5C4)C[C@H]2C(=O)N3)CC1 [Compound 1123]			< 10	> 100	
COc1ccc2c(O[C@@H]3C[C@H]4C(=O)N[C@]5(C(=O)NS(=O)(=O)C6CC6)C[C@H]5/C=C\CCCCC[C@H](Nc5ccc(F)c(C(F)(F)F)c5)C(=O)N4C3)cc(-c3nc(C(C)C)cs3)nc2c1C [Compound 447]	< 10	< 10			
CC(C)n1c(O[C@@H]2C[C@H]3C(=O)N[C@]4(C(=O)NS(=O)(=O)C5CC5)C[C@H]4/C=C\CCCCC[C@H](Nc4cc(F)cc(C(F)(F)F)c4)C(=O)N3C2)nc2ccccc21 [Compound 393]	< 10	10 to 75			
COc1ccc2c(O[C@@H]3C[C@H]4C(=O)N[C@]5(C(=O)NS(=O)(=O)C6(C)CC6)C[C@H]5/C=C\CCCCC[C@H](Nc5cccc(C(N)=O)c5)C(=O)N4C3)cc(-c3nc(C(C)C)cs3)nc2c1C [Compound 483]		< 10			
COc1ccc2c(O[C@@H]3C[C@H]4C(=O)N[C@]5(C(=O)O)C[C@H]5/C=C\CCCCC[C@H](Nc5cccc(F)c5)C(=O)N4C3)cc(-c3nc(C(C)C)cs3)nc2c1C [Compound 448]	< 10				
O=C1N[C@]2(C(=O)O)C[C@H]2/C=C\CCCCC[C@H](Nc2cc(F)cc(F)c2)C(=O)N2C[C@H](Oc3nc4ccccc4s3)C[C@@H]12 [Compound 324]	10 to 75				
O=C1N[C@]2(C(=O)O)C[C@H]2/C=C\CCCCC[C@H](Nc2cc(F)cc(C(F)(F)F)c2)C(=O)N2C[C@H](Oc3nc4ccc(Cl)cc4s3)C[C@@H]12 [Compound 322]	10 to 75				
CC(C)(C)OC(=O)N[C@H]1CCCCC/C=C\[C@@H]2C[C@@]2(C(=O)O)NC(=O)[C@@H]2C[C@@H](Oc3nc4ccc(Cl)cc4o3)CN2C1=O [Compound 1041]			> 100		
O=C1N[C@]2(C(=O)O)C[C@H]2/C=C\CCCCC[C@H](Nc2cc(Cl)cc(Cl)c2)C(=O)N2C[C@H](Oc3nc4ccccc4s3)C[C@@H]12 [Compound 344]	75 to 500				
COc1ccc2c(O[C@@H]3C[C@H]4C(=O)N[C@]5(C(=O)NS(=O)(=O)C6(C)CC6)C[C@H]5/C=C\CCCCC[C@H](Nc5ccc(NC(C)=O)cc5)C(=O)N4C3)cc(-c3nc(C(C)C)cs3)nc2c1C [Compound 485]		10 to 75			
CO[C@@H]1C[C@H]2C(=O)N[C@]3(C(=O)NCC(=O)NCc4ccccc4)C[C@H]3/C=C\CCCCC[C@H](NC(=O)OC(C)(C)C)C(=O)N2C1 [Compound 1063]					> 100
